How the values were obtained:
Test in all cases: viability relative to DMSO control (fraction); higher = less drug effect (more viable cells)
Conditions in all cases: 48 h
Filgotinib = compound: O=C(Nc1nc2cccc(-c3ccc(CN4CCS(=O)(=O)CC4)cc3)n2n1)C1CC1 [Filgotinib]
How it was run: (§1)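 Primary mononuclear tumour cells (Ficoll-isolated from blood or bone marrow, or processed lymph node; fresh or cryopreserved) were plated at 4 × 10^4 cells per well in 384-well plates with pre-plated compounds at five concentrations, one well each. Medium was RPMI-1640 with penicillin/streptomycin, L-glutamine and human serum, at 37 °C and 5% CO2 for 48 h. Viability was read as CellTiter-Glo luminescence relative to the median of 16 inner DMSO wells.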

SGC 0946 = compound: CC(C)N(CCCNC(=O)Nc1ccc(C(C)(C)C)cc1)C[C@H]1O[C@@H](n2cc(Br)c3c(N)ncnc32)[C@H](O)[C@@H]1O [SGC 0946]
How it was run: as §1

Everolimus = compound: CO[C@H]1C[C@@H]2CC[C@@H](C)[C@@](O)(O2)C(=O)C(=O)N2CCCC[C@H]2C(=O)O[C@H]([C@H](C)C[C@@H]2CC[C@@H](OCCO)[C@H](OC)C2)CC(=O)[C@H](C)/C=C(\C)[C@@H](O)[C@@H](OC)C(=O)[C@H](C)C[C@H](C)/C=C/C=C/C=C/1C [Everolimus]
How it was run: as §1

EPZ-6438 = compound: CCN(c1cc(-c2ccc(CN3CCOCC3)cc2)cc(C(=O)NCc2c(C)cc(C)[nH]c2=O)c1C)C1CCOCC1 [EPZ-6438]
How it was run: as §1

[1] = compound: O=C(Nc1ccc2[nH]nc(-c3ccncc3)c2c1)[C@@H]1CCN(CC(=O)N2CCN(c3ccc(-c4ncccn4)cc3)CC2)C1
How it was run: as §1

Etoposide = compound: COc1cc([C@@H]2c3cc4c(cc3[C@@H](O[C@@H]3O[C@@H]5CO[C@@H](C)O[C@H]5[C@H](O)[C@H]3O)[C@H]3COC(=O)[C@H]23)OCO4)cc(OC)c1O [Etoposide]
How it was run: as §1

Chlorambucil = compound: O=C(O)CCCc1ccc(N(CCCl)CCCl)cc1 [Chlorambucil]
How it was run: as §1

Duvelisib = compound: C[C@H](Nc1ncnc2nc[nH]c12)c1cc2cccc(Cl)c2c(=O)n1-c1ccccc1 [Duvelisib]
How it was run: as §1

Thalidomide = compound: O=C1CCC(N2C(=O)c3ccccc3C2=O)C(=O)N1 [Thalidomide]
How it was run: as §1

Entospletinib = compound: c1cn2cc(-c3ccc4cn[nH]c4c3)nc(Nc3ccc(N4CCOCC4)cc3)c2n1 [Entospletinib]
How it was run: as §1

Palbociclib = compound: CC(=O)c1c(C)c2cnc(Nc3ccc(N4CCNCC4)cn3)nc2n(C2CCCC2)c1=O [Palbociclib]
How it was run: as §1

Venetoclax = compound: CC1(C)CCC(CN2CCN(c3ccc(C(=O)NS(=O)(=O)c4ccc(NCC5CCOCC5)c([N+](=O)[O-])c4)c(Oc4cnc5[nH]ccc5c4)c3)CC2)=C(c2ccc(Cl)cc2)C1 [Venetoclax]
How it was run: as §1

Test System: primary AML patient cells (S055)
- viability (Filgotinib; 0.024 µM): 0.942
- viability (Filgotinib; 0.12 µM): 0.936
- viability (Filgotinib; 0.6 µM): 0.959
- viability (Filgotinib; 3 µM): 0.916
- viability (Filgotinib; 15 µM): 0.594
- viability (SGC 0946; 0.024 µM): 0.987
- viability (SGC 0946; 0.12 µM): 1
- viability (SGC 0946; 0.6 µM): 1.02
- viability (SGC 0946; 3 µM): 0.986
- viability (SGC 0946; 15 µM): 0.836
- viability (Everolimus; 0.0032 µM): 0.904
- viability (Everolimus; 0.016 µM): 0.96
- viability (Everolimus; 0.08 µM): 0.89
- viability (Everolimus; 0.4 µM): 0.951
- viability (Everolimus; 2 µM): 0.914
- viability (EPZ-6438; 0.024 µM): 1.01
- viability (EPZ-6438; 0.12 µM): 1.04
- viability (EPZ-6438; 0.6 µM): 0.976
- viability (EPZ-6438; 3 µM): 0.97
- viability (EPZ-6438; 15 µM): 0.917
- viability ([1]; 0.008 µM): 0.929
- viability ([1]; 0.04 µM): 0.819
- viability ([1]; 0.2 µM): 0.652
- viability ([1]; 1 µM): 0.52
- viability ([1]; 5 µM): 0.498
- viability (Etoposide; 0.032 µM): 1.03
- viability (Etoposide; 0.16 µM): 1
- viability (Etoposide; 0.8 µM): 0.989
- viability (Etoposide; 4 µM): 1.03
- viability (Etoposide; 20 µM): 0.937
- viability (Chlorambucil; 0.032 µM): 0.993
- viability (Chlorambucil; 0.16 µM): 1.04
- viability (Chlorambucil; 0.8 µM): 0.988
- viability (Chlorambucil; 4 µM): 0.997
- viability (Chlorambucil; 20 µM): 0.841
- viability (Duvelisib; 0.0016 µM): 0.937
- viability (Duvelisib; 0.008 µM): 0.954
- viability (Duvelisib; 0.04 µM): 0.893
- viability (Duvelisib; 0.2 µM): 0.862
- viability (Duvelisib; 1 µM): 0.77
- viability (Thalidomide; 0.032 µM): 0.916
- viability (Thalidomide; 0.16 µM): 0.94
- viability (Thalidomide; 0.8 µM): 0.894
- viability (Thalidomide; 4 µM): 0.931
- viability (Thalidomide; 20 µM): 0.876

Test System: primary DLBCL patient cells (S049)
- viability (Entospletinib; 0.024 µM): 0.951
- viability (Entospletinib; 0.12 µM): 0.834
- viability (Entospletinib; 0.6 µM): 0.804
- viability (Entospletinib; 3 µM): 0.886
- viability (Entospletinib; 15 µM): 0.892
- viability (Filgotinib; 0.024 µM): 0.918
- viability (Filgotinib; 0.12 µM): 0.969
- viability (Filgotinib; 0.6 µM): 1.03
- viability (Filgotinib; 3 µM): 0.926
- viability (Filgotinib; 15 µM): 0.203
- viability (SGC 0946; 0.024 µM): 0.919
- viability (SGC 0946; 0.12 µM): 1.05
- viability (SGC 0946; 0.6 µM): 0.926
- viability (SGC 0946; 3 µM): 0.719
- viability (SGC 0946; 15 µM): 0.183
- viability (Everolimus; 0.0032 µM): 1.1
- viability (Everolimus; 0.016 µM): 1.04
- viability (Everolimus; 0.08 µM): 1.09
- viability (Everolimus; 0.4 µM): 1.05
- viability (Everolimus; 2 µM): 1.02
- viability (Palbociclib; 0.024 µM): 0.999
- viability (Palbociclib; 0.12 µM): 0.968
- viability (Palbociclib; 0.6 µM): 0.88
- viability (Palbociclib; 3 µM): 0.496
- viability (Palbociclib; 15 µM): 0.0932
- viability (EPZ-6438; 0.024 µM): 1.08
- viability (EPZ-6438; 0.12 µM): 1.08
- viability (EPZ-6438; 0.6 µM): 1.03
- viability (EPZ-6438; 3 µM): 1.05
- viability (EPZ-6438; 15 µM): 0.811
- viability ([1]; 0.008 µM): 0.611
- viability ([1]; 0.04 µM): 0.53
- viability ([1]; 0.2 µM): 0.396
- viability ([1]; 1 µM): 0.304
- viability ([1]; 5 µM): 0.245
- viability (Etoposide; 0.032 µM): 0.907
- viability (Etoposide; 0.16 µM): 1.01
- viability (Etoposide; 0.8 µM): 0.962
- viability (Etoposide; 4 µM): 0.882
- viability (Etoposide; 20 µM): 0.548
- viability (Chlorambucil; 0.032 µM): 0.96
- viability (Chlorambucil; 0.16 µM): 0.976
- viability (Chlorambucil; 0.8 µM): 1.05
- viability (Chlorambucil; 4 µM): 0.952
- viability (Chlorambucil; 20 µM): 0.589
- viability (Venetoclax; 0.00064 µM): 0.898
- viability (Venetoclax; 0.0032 µM): 0.593
- viability (Venetoclax; 0.016 µM): 0.149
- viability (Venetoclax; 0.08 µM): 0.0521
- viability (Venetoclax; 0.4 µM): 0.0447
- viability (Duvelisib; 0.0016 µM): 0.988
- viability (Duvelisib; 0.008 µM): 0.969
- viability (Duvelisib; 0.04 µM): 0.92
- viability (Duvelisib; 0.2 µM): 0.986
- viability (Duvelisib; 1 µM): 0.81
- viability (Thalidomide; 0.032 µM): 0.902
- viability (Thalidomide; 0.16 µM): 0.864
- viability (Thalidomide; 0.8 µM): 0.918
- viability (Thalidomide; 4 µM): 0.968
- viability (Thalidomide; 20 µM): 1.03
